Results on 12 molecules are retold here after patent US8592603B2, “Synthesis of 2-(4-aminophenyl) benzothiazole derivatives and use thereof” (Kaohsiung Medical University, priority 2011, dated 2013).

One data set relates to ERK. Description: Western blot analysis of MAPK phosphorylation: ERK. The data set is classed as cell-based, human. The conditions noted are these: BCC cells, pretreatment 30 min before 4 μM 6f-UVA; oligomycin 25 μM, ATP 1×10^−4M (FIG. 6B). How it is done: (A) After exposure to different concentration of 6f-UVA, cell lysates were collected and immunoblotted with specific antibodies as indicated. For the internal control, the same amounts of protein extract were also probed with antibody against actin. (B) As a control, the expression level of p-ERK was determined in the presence of oligomycin (25 μM) and ATP (1×10^−4M)
Total cell extracts from cultured BCC cells were obtained by lysing the cells in ice-cold RIPA buffer (1×PBS, 1% NP-40, 0.5% sodium deoxycholate, 0.1% SDS) containing 100 μg/mL PMSF, 2 μg/mL aprotinin, 2 μg/mL leupeptin and 100 μg/mL NaF. After centrifugation at 14,000 g for 30 min, protein in the supernatants was quantified by Bradford method (Bio-Rad). Forty micrograms of protein per lane was applied in 10% SDS-poly-acrylamide gel. After electrophoresis, protein was transferred from the gel to polyvinylidene difluoride (PVDF) membrane (Millipore, Bedford, Mass.). The membranes were blocked at room temperature for 1 h in PBS+0.1% Tween 20 (PBS-T) containing 5% skim milk. After being briefly rinsed with PBS-T, the blots were probed with respective primary antibodies at room temperature for 2 h or at 4° C. overnight. Rabbit polyclonal antibodies against JNK (46 kDa), p38 (38 kDa), ERK (42, 44 kDa), and mouse monoclonal antibody against p-JNK, p-p38, p-ERK were purchased from Santa Cruz Biotechnology (Santa Cruz, Calif.). Mouse monoclonal antibody against actin was purchased from Chemicon Int. Inc. (Temecula, Calif.). For the blocking test, 25 μM oligomycin (Sigma, a mitochondria-specific F0F1 ATP synthase inhibitor) or 1×10^−4M ATP (Sigma) was added to the media 30 min before treated with 6f-UVA, respectively. The membrane was incubated with the corresponding horseradish peroxidase-labeled secondary antibody (Santa Cruz Biotechnology) at room temperature for 1 h. […] The relative amounts of specific proteins were quantified by densitometry scanning of X-ray films and analyzed by Eagle Eye Image System (Stratagene, La Jolla, Calif.)
On the technique in general: A western blot detects proteins with antibodies after separation by electrophoresis.

The test system of data set [1] is BCC cells. Description: Sub-G1 region analysis (PI, flow cytometry). The class given is cell-based, human. To be noted: 4 μM for 4 hours, 1 J/cm^2 UVA, 24 h after irradiation. How it is done:
BCC cells were treated with compounds at 4 μM and 1 J/cm^2 UVA. Twenty-four hours after irradiation, cells were harvested by trypsinization and centrifugation. Cell pellets were resuspended in 50% cold ethanol and fixed at −20° C. After fixation, cells were washed once with cold PBS and incubated in 0.5 mL of PBS containing 100 μg/mL RNase A for 20 min at 37° C. Cells were harvested by centrifugation at 400 g for 5 min, and 250 μL of PBS containing 50 μg/mL propidium iodide (PI) was added to the pellet. Thirty minutes later, the DNA contents of 10,000 events were measured by FACSscan flow cytometer (Elite ESP, Beckman Coulter, Brea, Calif.). Histograms were analyzed using Windows Multiple Document Interface software (WinMDI). Cells with DNA content less than that in untreated cells in G0/G1 were considered apoptotic. To investigate the effects of compounds 6 on cell cycle progression of BCC cells, the DNA content of cell nuclei was measured by flow cytometric analysis. […] BCC cells were treated with 4 μM agents for 4 hours followed by 1 J/cm^2 UVA irradiation. Twenty-four hours after irradiation, the PI reagent was used. Approximately 10000 cells from each group were analyzed with the FACScan flow cytometer. The apoptotic effects in 2.2% (control), 6.5% (6a), 13.4% (6b), 29.2% (6c), 24.4% (6d), 6.5% (6e), 35.4% (6f), 13.6% (6g), 13.8% (6h), 14.8% (6i) and 6.4% (6j) of sub-G1 DNA peak were obtained (% represented the percentage of cell counts).
In general terms: Flow cytometry measures light scatter and fluorescence of single cells or particles in a stream.

Data set [2] deals with BCC cells. Description: Determination of intracellular ROS level (DCFH-DA). The data set is classed as cell-based, human. The conditions noted are these: BCC cells treated with 4 μM 6f-UVA, catalase 800 U/mL pretreatment. How it is done: (A) 6f-UVA induced ROS generation in BCC cells. Histogram of fluorescence vs cell count in BCC cells with various concentrations of 6f-UVA and stained with DCFH-DA. As a control, ROS was measured in the presence of catalase, a H2O2 scavenger. (B) The ΔΨmt of BCC cells after exposure to 6f-UVA. Cells were treated with 0, 2, and 4 μM Formula 6f for 4 h followed by 1 J/cm2 UVA irradiation, then stained with DiOC6 and analyzed immediately by flow cytometry as described under Materials and Methods. The number in M1 indicates the percentage of cells with reduced ΔΨmt. Approximately 10000 cells from each group were analyzed by flow cytometry. (C) Relative ATP levels were calculated as the percentage of the 0 μM level. Similar results were obtained in three independent experiments. *p<0.05, ** p<0.01 as compared with the control.
To evaluate intracellular reactive oxygen species (ROS) levels, 2′,7′-dichlorofluorescein diacetate (DCFH-DA, Molecular Probes) fluorescent dye was used to clarify this issue. The nonpolar DCFH-DA is converted to the polar derivative DCFH by esterases when it is taken up by the cell. DCFH is nonfluorescent but is rapidly oxidized to the highly fluorescent DCF by intracellular H2O2 or nitric oxide. […] The fluorescence of the samples was measured with a flow cytometer. The 2′,7′-dichlorofluorescein (DCF) data were recorded using FL-1 photomultiplier.

For the molecule `Nc1ncnc2c1ncn2[C@@H]1O[C@H](COP(=O)(O)OP(=O)(O)OP(=O)(O)O)[C@@H](O)[C@H]1O` [ATP], the “ERK activation after pretreatment” value with ERK is given as “not ATP increased the ERK activation”.

`Nc1ccc(-c2nc3ccccc3s2)cc1` [Formula 6a, 2-(4-Aminophenyl)benzothiazole]: in the data set with BCC cells [1], the “sub-G1 DNA peak (apoptotic effects, percentage of cell counts)” value was found to be 6.5%. On the same count and under the same terms, as for `Cc1ccc2nc(-c3ccc(N)cc3)sc2c1` [Formula 6b, 2-(4-Aminophenyl)-6-methylbenzothiazole], the figure is 13.4%. By melting point is commonly meant the temperature, or range, at which the solid turns liquid. For `CCc1ccc2nc(-c3ccc(N)cc3)sc2c1` [Formula 6c, 2-(4-Aminophenyl)-6-ethylbenzothiazole], the melting point fell in the range of 154 to 156 °C. The “sub-G1 DNA peak (apoptotic effects, percentage of cell counts)” value with BCC cells [1] was determined as 29.2%. Take `COc1cccc2nc(-c3ccc(N)cc3)sc12` [Formula 6d, 2-(4-Aminophenyl)-7-methoxybenzothiazole]: the melting point is 142 to 144 °C. The “sub-G1 DNA peak (apoptotic effects, percentage of cell counts)” value in the data set on BCC cells [1] came out at 24.4%. Consider `COc1ccc2nc(-c3ccc(N)cc3)sc2c1` [Formula 6e, 2-(4-Aminophenyl)-6-methoxybenzothiazole], for which the “sub-G1 DNA peak (apoptotic effects, percentage of cell counts)” value in the data set on BCC cells [1] was 6.5%. On the same count and under the same terms, as for `Cc1cc(-c2nc3ccccc3s2)ccc1N` [Formula 6g, 2-(4-Amino-3-methylphenyl)benzothiazole], the figure is 13.6%. `CCc1ccc2nc(-c3ccc(N)c(C)c3)sc2c1` [Formula 6h, 2-(4-Amino-3-methylphenyl)-6-ethylbenzothiazole] displayed a melting point of 171 to 173 °C. Besides, the “sub-G1 DNA peak (apoptotic effects, percentage of cell counts)” value in the data set with BCC cells [1] is recorded as 13.8%. In the same order, the values of `COc1ccc2nc(-c3ccc(N)c(C)c3)sc2c1` [Formula 6i, 2-(4-Amino-3-methylphenyl)-6-methoxybenzothiazole] are 151 to 153 °C and 14.8%. In turn, `Cc1cc(-c2nc3ccc(C(F)(F)F)cc3s2)ccc1N` [Formula 6j, 2-(4-Amino-3-methylphenyl)-6-trifluoromethylbenzothiazole] displayed a melting point of 152 to 154 °C. In addition, in the data set on BCC cells [1], the “sub-G1 DNA peak (apoptotic effects, percentage of cell counts)” value was 6.4%. Consider `CC[C@H]1/C=C/C=C/C[C@@H](C)[C@H](O)[C@@](C)(O)C(=O)[C@@H](C)[C@H](O)[C@@H](C)C(=O)[C@@H](C)[C@H](O)[C@@H](C)/C=C/C(=O)O[C@@H]2[C@H](C)[C@H](CC1)O[C@]1(CC[C@H](C)[C@H](C[C@@H](C)O)O1)[C@H]2C` [oligomycin], for which the “ERK activation after pretreatment” value in the data set on ERK is recorded as “increased the ERK activation”.

B1: catalase: an effective H2O2 scavenger (Sigma) (protein, UniProt P00432 2-527, looked up)
Catalase: ADNRDPASDQMKHWKEQRAAQKPDVLTTGGGNPVGDKLNSLTVGPRGPLLVQDVVFTDEMAHFDRERIPERVVHAKGAGAFGYFEVTHDITRYSKAKVFEHIGKRTPIAVRFSTVAGESGSADTVRDPRGFAVKFYTEDGNWDLVGNNTPIFFIRDALLFPSFIHSQKRNPQTHLKDPDMVWDFWSLRPESLHQVSFLFSDRGIPDGHRHMNGYGSHTFKLVNANGEAVYCKFHYKTDQGIKNLSVEDAARLAHEDPDYGLRDLFNAIATGNYPSWTLYIQVMTFSEAEIFPFNPFDLTKVWPHGDYPLIPVGKLVLNRNPVNYFAEVEQLAFDPSNMPPGIEPSPDKMLQGRLFAYPDTHRHRLGPNYLQIPVNCPYRARVANYQRDGPMCMMDNQGGAPNYYPNSFSAPEHQPSALEHRTHFSGDVQRFNSANDDNVTQVRTFYLKVLNEEQRKRLCENIAGHLKDAQLFIQKKAVKNFSDVHPEYGSRIQALLDKYNEEKPKNAVHTYVQHGSHLSAREKANL
With B1, in the data set with BCC cells [2], the “effect of catalase on increased ROS production” value was “significantly abrogated”.
